Test results reported in article PMC10266688 (PLOS ONE, 2023).
Values joined by “and” are separate entries in the source; they are usually repeats but may differ in a detail not shown here. Equal entries are not always repeated.

Experiments:
TOV21G and ES2 cells = test: Annexin V apoptosis assay; conditions: 12 h
Neat solution stability = type: physicochemical; conditions: 10 μM, 37°C
Description: An incubation mixture with, and without NADPH-generating system, as well as a neat solution prepared without microsomes and NADPH-generating system was used. […] All reactions were initiated with the addition of Up284. Incubations were performed in glass tubes maintained at 37°C in a shaker bath. At 0, 30, and 60 minutes, 10 μL samples were withdrawn from the reaction mixture, and 0.5 mL of acetonitrile containing internal standard was added to each. Samples were vortex-mixed and subjected to centrifugation for 5 min at 1430 x g. A 10 μL aliquot of the supernatant was injected onto the LC-MS/MS instrument for qualitative analysis using a temperature-controlled autosampling device operating at 5°C.

[1] = Plasma Protein Binding (equilibrium dialysis); type: in vitro ADME, mouse
Description: The assay was performed in a multiple-use 96-well dialysis unit (HTD96b dialyzer). Each individual well unit consisted of 2 chambers separated by a vertically aligned dialysis membrane of predetermined pore size (MWCO 12–14 kDa). 120 μL of non-diluted plasma spiked with the compound (1 μM, final DMSO concentration 1%) was added to one chamber, and the same volume of PBS buffer pH 7.4 to the other chamber. The HTD96b dialyzer was covered with adhesive sealing film and incubated 5 h at 37°C while shaking at 100 rpm. For sample preparation, an aliquot of the contents of each chamber was mixed with the same volume of the blank opposite matrix. In order to define non-specific loss of the compound during this assay, a standard solution was created by mixing an aliquot of spiked plasma with blank buffer without dialysis. Two aliquots of the standard solution were incubated at 37°C, shaking at 100 rpm for 5 h (recovery samples). The other two aliquots were immediately diluted with acetonitrile and stored at 4°C until analysis (stability samples). All samples were diluted 5-fold with internal standard diluted in 100% methanol with subsequent plasma proteins sedimentation by centrifuging at 6000 rpm for 5 minutes. Supernatants were analyzed using LC-MS/MS. The percentage of plasma protein bound compound, recovery and stability were calculated using following equations.
Proteinbinding={(1−(arearatioinbuffer)/(arearatioinplasma)}.100%
Recovery={(arearatioinbuffer+peakareainplasma)/arearatioinrecoverysample}.100%
Stability={arearatioinrecoverysample/arearatioinstabilitysample}.100%

GAPDH, RPN2 and USP14 = test: CETSA control proteins, SKOV3 cells; type: binding, human; conditions: SKOV3, 10 μM, 30 min
Description: Cells were incubated in a thermal cycler (Biorad IQ5 Cycler) over a gradient of temperatures for 4 min, followed by incubation at 25°C for 3 min, then snap-frozen in liquid nitrogen and subjected to three freeze–thaw cycles. Samples were briefly vortexed and centrifuged at 16,000 x g for 20 min at 4°C. Cleared cell lysates were resolved in SDS–PAGE followed by immunoblotting for RPN13, GAPDH, RPN2 and USP14.
Cellular Thermal Shift Assay (CETSA) assesses thermal stabilization of proteins upon ligand binding and is used extensively to detect drug interactions by implementing a thermal shift in the cellular context. The assay involves drug treatment of cells, heating to denature and precipitate proteins in a thermocycler with a specified gradient of temperatures, cell lysis by freeze/thaw cycles, and the separation of cell debris and aggregates from the soluble protein fraction by centrifugation. Whereas unbound proteins denature and precipitate at elevated temperatures, ligand-bound proteins remain in solution. The proportion of individual proteins remaining in solution can be detected by quantitative Western blotting. […]. There was no impact on other control proteins tested, including a house keeping protein (GAPDH) and proteasome subunits (RPN2 and USP14). […]
Resuspended cells were aliquoted into PCR strips. […]

[2] = system: proteasome (4UbFL reporter); test: 4UbFL reporter in ES2-4UbFL tumor and leg muscle of nude mice; type: in vivo, mouse; conditions: single IP dose Up284 20mg/kg or bortezomib 0.75 mg/kg, 4 h and 24 h
Description: A-C) Female nude mice were inoculated IP with ES2-luc cells, a human ovarian cancer line expressing luciferase. […] The IP tumor tissue and electroporated normal muscle tissue, being spatially distinct, were identified with separate regions of interest (ROI) after simultaneous imaging with IVIS.
Briefly mice were inoculated IP with ES2 cells stably expressing 4UbFL. After 48 h, the mice were injected with luciferin, imaged and then randomized into 3 groups (n = 5/group). Next, leg muscle of each mouse was electroporated with 4UbFL plasmid (considered as normal tissue). After 48 h (i.e. day 4) the mice were re-imaged and basal bioluminescence (0 h) was separately measured in the leg muscle and peritoneal ROIs.

[3] = Tissue distribution in CD1 mice, LC-MS/MS; type: in vivo, mouse; conditions: 40 mg/kg IV
Description: Tissue homogenates were prepared at a concentration of 200 mg/mL in PBS. After vortex-mixing and centrifuging for 5 min at 2700 rpm. […] Mobile phase A was water containing 0.1% formic acid, and mobile phase B was acetonitrile containing 0.1% formic acid. The gradient started with mobile phase B at 20% and was held at 20% for 0.5 min with a flow rate of 0.3 mL/min, then increased to 100% over 0.5 minutes and held for 2.0 min, and finally returned back to 20% mobile phase B and allowed to equilibrate until 4.1min. […] The lower limit of quantitation (LLOQ) in plasma was 10 ng/mL.
(§1) A) ES2 cells stably transduced with the 4UbFL reporter plasmid were treated with compounds at indicated doses for 4 h. The cells were then washed, lysed and their luminescence measured by a luminometer after addition of luciferin. B) Female CD1 mice electroporated with 4UbFL plasmid in their leg muscle. After 48 h, the mice were injected with luciferin, imaged by IVIS for their basal bioluminescence and randomized into two groups of five. […] D) Up284 tissue distribution. […] Up284 levels in tissue samples were analyzed by HPLC. E) Up284 pharmacokinetics. […] Blood was collected at indicated time points thereafter and analyzed for Up284 levels by HPLC.
Up284 levels were analyzed in all major tissues (brain, colon, heart, kidney, liver, lung and spleen) by liquid chromatography–mass spectrometry (LC–MS/MS).

[4] = system: HMW polyUb proteins in ES2 cells; test: Western blot for polyubiquitinated proteins; conditions: by 12 h
[5] = system: proteasome (4UbFL reporter); test: In vivo 4UbFL proteasome reporter in electroporated leg muscle, CD1 mice; design: species or system mouse
Description: A patch of CD1 mouse leg was shaved of hair and 10 μg 4Ub-FL plasmid in 20 μL of PBS was injected into the quadriceps femoralis muscle followed immediately by injection of the 2 Needle Array to 5 mm depth encompassing the injection site and square wave EP (ElectroSquarePorator 833, BTX-2 Needle array 5mm gap, Harvard apparatus) delivered as eight pulses at 106V for 20 ms with 200 ms intervals. One day post-EP, mice were anesthetized with isoflurane, injected IP with luciferin (0.3 mg in 100 μL water) and optical imaging was performed to determine basal level luciferase expression. Images were acquired for 10 min with a Xenogen IVIS 200 (Caliper, Hopkinton, MA). Equally sized areas were analyzed using Living Image 2.20 software.
Two days later, luciferin was injected IP and the baseline enzymic activity of luciferase in the transduced muscle tissue was visualized as bioluminescence within this region of interest (ROI) using an IVIS imager. […] After 4h, 24h and 48h the mice were again injected with luciferin, imaged and bioluminescence was quantified (Fig 5B).
as §1

[6] = mouse, in vivo, iv, 20 mg/kg
Description: The mice were divided into three groups consisting of three female CD1 mice each. […] Terminal blood sampling for hematological and serum biochemical analysis was performed on Day 7 of the study, 24 h after the last dosing. […] Terminal bleeding and euthanasia were performed on Day 7, 24 h after the third dosing. Blood collection was carried out after 6 h fasting. Animals were injected IP with 2,2,2-tribromoethanol (200 mg/kg) and the blood was collected from orbital sinuses into dry microtainers without anticoagulant. For the serum collection, the tubes with collected blood were held at RT for 15–60 min after blood drawing to form a clot, and then were centrifuged at 9000 rpm for 20 min at 4°C. The collected serum was frozen within 60–80 min after blood drawing and was stored at -20°C for further clinical chemistry analysis. For the hematological study, 25 μL of fresh blood was quickly mixed with an equal volume of 0.36% solution of K2EDTA in saline. Assessment of the hematological parameters was performed using the BIO TE hematology analyzer MCL-3124 and consumable reagents (Cormay) within 2 h of the blood draw. For clinical chemistry analyses, ASAT, ALAT, ALP, LDH, GGT, CK, Creatinine, Urea and TP were determined in the serum using commercial kits according to the manufacturer’s instructions.

[7] = Repeat IP dosing tolerability in Balb/c and C57BL/6 mice; type: in vivo; conditions: female Balb/c and C57BL/6 mice
[8] = mouse plasma, 1.0 µM, individual incubations

For `N#Cc1ccc(/C=C2/C(=O)/C(=C/c3ccc(C#N)cc3)C23CCNCC3)cc1` [Up284], the “apoptosis, Up284 in combination with cisplatin” value (TOV21G and ES2 cells) was “no indication of synergy”, the “% Drug Remaining, Neat Solution” value (Neat solution stability; 0 min) was 100% and the “% Drug Remaining, Neat Solution” value (Neat solution stability; 30 min) was 86%. The “% Drug Remaining, Neat Solution” value (Neat solution stability; 60 min) was 78%, the “% of bound compound, mean” value ([1]; mouse plasma, 1.0 µM) was 98% and the “Stability, %” value ([1]; mouse plasma, 1.0 µM, 5 h 37°C) was 109%. The “% of bound compound” value [1, 8] was 98% and 97%, the “Recovery, %” value [1, 8] was 101% and the recovery at 5 h, 1 µM ([1]; mouse, non-diluted plasma, pH 7.4, mouse plasma, individual incubations) was 98%. For the same compound, the “thermal stabilization of GAPDH, RPN2 and USP14” value (GAPDH, RPN2 and USP14) was “no impact”, the “4UbFL bioluminescence signal in muscle tissue vs tumor” value [2] was “similarly enhanced the bioluminescence signal” and the “plasma level at 24 h” value [3] was “low”. For the same compound, the “tissue levels (brain, colon, heart, kidney, liver, lung and spleen)” value ([3]; 24 h) was “accumulated in all the tissues, particularly the lungs”, the “accumulation of HMW polyUb proteins” value [4] was “profound accumulation” and the “4UbFL reporter stabilization in muscle, PO” value ([5]; Up284 PO once 40mg/kg vs ixazomib 10 mg/kg) was “better stabilized the reporter than ixazomib”. The “duration of enhanced 4UbFL bioluminescence” value ([5]; single IP dose 40 mg/kg) was greater than 48 h, the “4UbFL bioluminescence in leg muscle” value ([5]; single IP dose 40 mg/kg, 4h, 24h and 48h) was “significantly enhanced bioluminescence levels” and the “other blood parameters vs vehicle” value [6] was “did not significantly change”. For the same compound, the “tolerability of 60 mg/kg IP every third day” value [7] was “toxic” and the MTD ([7]; mouse, in vivo, ip, read-out: MTD after 3 doses, IP delivery every third day) was 40 mg/kg.
